A value given as a limit tells only on which side of the number the result lay.

The subject of the first assay is Escherichia coli (ATCC25922) or Staphylococcus aureus (ATCC25923). The assay can be described thus: Antibacterial MIC, microdilution method in Mueller-Hinton medium. The settings on record: Escherichia coli, 18 h, MIC in E. coli or S. aureus; two-fold serial dilutions 64 to 0.5 μg/ml in duplicate; 18 hours of incubation at 35° C.; read-out: Potency (MIC). The assay is classed as cell-based. A digest of the protocol: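 Two-fold serial dilutions from 64 to 0.5 μg/ml, in duplicate, by broth microdilution in Mueller-Hinton medium (NCCLS M7-A5). MIC taken as the lowest concentration preventing visible growth after 18 h at 35° C.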
On the technique in general: In broth dilution the organism is exposed to a series of concentrations in liquid medium.
With `Cl.O=C(Nc1ccc(O)cc1)c1ccc(Nc2nc(N3CCCCC3)nc(N3CCCCC3)n2)cc1O` [N-[3-hydroxy-4-(4-hydroxy-phenylcarbamoyl)-phenyl]-4,6-Bis((3R,5S)-3,5-0diamino-piperidin-1-yl)-[1,3,5]triazine-2-amine], the MIC (in general, the least concentration at which growth counts as inhibited) was below 16 µg/mL.
The same measure, in the same setting: then `Cc1cccc(NC(=O)c2ccc(Nc3nc(N4CCCCC4)nc(N4CCCCC4)n3)cc2O)n1.Cl` [N-[3-hydroxy-4-(6-methyl-pyridin-2-ylcarbamoyl)-phenyl]-4,6-Bis-((3R,5S)-3,5-diamino-piperidin-1-yl)-[1,3,5]triaazine-2-amine], with below 64 µg/mL; and `Cl.NS(=O)(=O)c1ccc(NC(=O)c2ccc(Nc3nc(N4CCCCC4)nc(N4CCCCC4)n3)cc2O)cc1` [N-[3-hydroxy-4-{4-sulfamoyl-phenylcarbamoyl)-phenyl]-4,6-Bis-((3R,5S)-3,5-diamino-piperidin-1-yl)-[1,3,5]triazine-22-amine], with above 64 µg/mL; and `Cc1cc(C)c(S(=O)(=O)Nc2ccc(Nc3nc(N4CCCCC4)nc(N4CCCCC4)n3)cc2O)c(C)c1.Cl` [N-[3-hydroxy-(2,4,6-trimethyl-benzenesulfonylamino)-phenyl]-4,6-Bis-((3R,5S)-3,5-diamino-pperidin-1-yl)-[1,3,5]triazine-2-amine], with below 64 µg/mL.
For `Cl.O=S(=O)(c1cc(Nc2nc(N3CCCCC3)nc(N3CCCCC3)n2)ccc1N1CCOCC1)N1CCOCC1` [N-[3-morpholine-4-sulfonyl)-4-morpholin-4-yl-phenyl]-4,6-Bis-((3R,5S)-3,5-diamino-piperidin-1-yl)-[1,3,5]triazine-2-amine], the minimal inhibitory concentration (MIC) was above 64 µg/mL.
On the same count and under the same terms, then `N[C@@H]1C[C@H](N)CN(c2nc(Nc3ccc(S(=O)(=O)Nc4ccc5cn[nH]c5c4)cc3)nc(N3C[C@H](N)C[C@H](N)C3)n2)C1` [N-[4-(1H-indazol-6-ylsulfamoyl)-phenyl]-4,6-Bis-((3R,5S)-3,5-diamino-piperidin-1-yl)-[1,3,5]triazine-2-amine], with above 64 µg/mL.
The same measure, in the same setting: the value for `N[C@@H]1C[C@H](N)CN(c2nc(Nc3ccc(NC(=O)C(F)(F)F)cc3)nc(N3C[C@H](N)C[C@H](N)C3)n2)C1` [N-[4-(2,2,2-trifluoro-acetylamino)-phenyl]-4,6-Bis-((3R,5S)-3,5-diamino-piperidin-1-yl)-[1,3,5]triazine-2-amine] was above 64 µg/mL; that for `CC(C)(C)C(=O)Nc1ccc(Nc2nc(N3CCCCC3)nc(N3CCCCC3)n2)cc1O.Cl` [N-[4-(2,2-dimethyl-propionylammino)-3-hydroxy-phenyl]-4,6-Bis-((3R,5S)-3,5-diamino-piperidin-1-yl)-[1,3,5]triazine-2-amine] was below 64 µg/mL.
On the same count and under the same terms, then `Cl.O=C(Nc1ccc(Cl)cc1Cl)c1ccc(Nc2nc(N3CCCCC3)nc(N3CCCCC3)n2)cc1O` [N-[4-(2,4-dichloro-phenylcarbamoyl)-3-hydroxy-phhenyl]-4,6-Bis-((3R,5S)-3,5-diamino-piperidin-1-yl)-[1,3,5]triazine-2-amine], with below 16 µg/mL.

The same assay, now with this note: Escherichia coli, 18 h, read-out: Potency (MIC).
Turning to `N[C@@H]1C[C@H](N)CN(c2nc(Nc3ccc(C(=O)Nc4cccc(OC(F)(F)F)c4)c(O)c3)nc(N3C[C@H](N)C[C@H](N)C3)n2)C1` [N-[3-hydroxy-4-(3-trifluoromethoxy-phenylcarbamoyl)-phenyl]-4,6-Bis-((3R,5S)-3,5-diamino-piperidin-1-yl)-[1,3,5]triazine-2-amine], the MIC is below 16 µg/mL.
Regarding `N[C@@H]1C[C@H](N)CN(c2nc(Nc3ccc(C(=O)Nc4cccc(C(F)(F)F)c4)c(O)c3)nc(N3C[C@H](N)C[C@H](N)C3)n2)C1` [N-[3-hydroxy-4-(3-trifluoromethyl-phenylcarbamoyl)-phenyl]-4,6-Bis-((3R,5S)-3,5-diamino-piperidin-1-yl)-[1,3,5]triazine-2-amine], the minimal inhibitory concentration (MIC) was below 16 µg/mL.
On the same count and under the same terms, the value for `N[C@@H]1C[C@H](N)CN(c2nc(Nc3ccc(C(=O)Nc4cccc(SC(F)(F)F)c4)c(O)c3)nc(N3C[C@H](N)C[C@H](N)C3)n2)C1` [N-[3-hydroxy-4-(3-trifluoromethylsulfanyl-phenylcarbamoyl)-phenyl]-4,6-Bis-((3R,5S)-3,5-diamino-piperidin-1-yl)-[1,3,5]triazine-2-amine] was below 16 µg/mL; that for `COc1ccc(C(=O)Nc2ccc(Nc3nc(N4C[C@H](N)C[C@H](N)C4)nc(N4C[C@H](N)C[C@H](N)C4)n3)cc2O)cc1` [N-[3-hydroxy-4-(4-methoxy-benzoylamino)-phenyl]-4,6-Bis-((3R,5S)-3,5-diamino-piperidin-1-yl)-[1,3,5]triazine-2-amine] was below 16 µg/mL.
On to `COc1ccc(NC(=O)c2ccc(Nc3nc(N4C[C@H](N)C[C@H](N)C4)nc(N4C[C@H](N)C[C@H](N)C4)n3)cc2O)cc1` [N-[3-hydroxy-4-(4-methoxy-phenylcarbamoyl)-phenyl]-4,6-Bis-((3R,5S)-3,5-diamino-piperidin-1-yl)-[1,3,5]triazine-2-amine], for which the minimum inhibitory concentration (MIC) is below 64 µg/mL.
On to `Cc1cc(=O)oc2cc(NC(=O)c3ccc(Nc4nc(N5C[C@H](N)C[C@H](N)C5)nc(N5C[C@H](N)C[C@H](N)C5)n4)cc3O)ccc12` [N-[3-hydroxy-4-(4-methyl-2-oxo-2H-chromen-7-ylcarbamoyl)-phenyl]-4,6-Bis-((3R,5S)-3,5-diamino-piperidin-1-yl)-[1,3,5]triazine-2-amine], for which the MIC was below 16 µg/mL.
Same read-out and setting: then `Cc1ccc(C(=O)Nc2ccc(Nc3nc(N4C[C@H](N)C[C@H](N)C4)nc(N4C[C@H](N)C[C@H](N)C4)n3)cc2O)cc1` [N-[3-hydroxy-4-(4-methyl-benzoylamino)-phenyl]-4,6-Bis-((3R,5S)-3,5-diamino-piperidin-1-yl)-[1,3,5]triazine-2-amine], with below 16 µg/mL; and `CCCCC(=O)Nc1ccc(S(=O)(=O)Nc2ccc(Nc3nc(N4C[C@H](N)C[C@H](N)C4)nc(N4C[C@H](N)C[C@H](N)C4)n3)cc2O)cc1` [N-[3-hydroxy-4-(4-pentanoylamino-benzenesulfonylamino)-phenyl]-4,6-Bis-((3R,5S)-3,5-diamino-piperidin-1-yl)-[1,3,5]triazine-2-amine], with below 64 µg/mL.
As for `N[C@@H]1C[C@H](N)CN(c2nc(Nc3ccc(C(=O)Nc4ccc(SC(F)(F)F)cc4)c(O)c3)nc(N3C[C@H](N)C[C@H](N)C3)n2)C1` [N-[3-hydroxy-4-(4-trifluoromethylsulfanyl-phenylcarbamoyl)-phenyl]-4,6-Bis-((3R,5S)-3,5-diamino-piperidin-1-yl)-[1,3,5]triazine-2-amine], the MIC is below 64 µg/mL.
For the molecule `CC(C)CCCCCC(=O)Nc1ccc(Nc2nc(N3C[C@H](N)C[C@H](N)C3)nc(N3C[C@H](N)C[C@H](N)C3)n2)cc1O` [N-[3-hydroxy-4-(7-methyl-octanoylamino)-phenyl]-4,6-Bis-((3R,5S)-3,5-diamino-piperidin-1-yl)-[1,3,5]triazine-2-amine], the minimal inhibitory concentration (MIC) was below 16 µg/mL.
Turning to `N[C@@H]1C[C@H](N)CN(c2nc(Nc3ccc(C(=O)N4CCOCC4)c(O)c3)nc(N3C[C@H](N)C[C@H](N)C3)n2)C1` [N-[3-hydroxy-4-(morpholine-4-carbonyl)-phenyl]-4,6-Bis-((3R,5S)-3,5-diamino-piperidin-1-yl)-[1,3,5]triazine-2-amine], the MIC is above 64 µg/mL.
Same read-out and setting: then `N[C@@H]1C[C@H](N)CN(c2nc(Nc3ccc(C(=O)Nc4ccc5[nH]cnc5c4)c(O)c3)nc(N3C[C@H](N)C[C@H](N)C3)n2)C1` [N-[4-(1H-benzoimidazol-5-ylcarbamoyl)-3-hydroxy-phenyl]-4,6-Bis-((3R,5S)-3,5-diamino-piperidin-1-yl)-[1,3,5]triazine-2-amine], with below 16 µg/mL; and `N[C@@H]1C[C@H](N)CN(c2nc(Nc3ccc(C(=O)Nc4ccc5c(c4)OC(F)(F)O5)c(O)c3)nc(N3C[C@H](N)C[C@H](N)C3)n2)C1` [N-[4-(2,2-difluoro-benzo[1,3]dioxol-5-ylcarbamoyl)-3-hydroxy-phenyl]-4,6-Bis-((3R,5S)-3,5-diamino-piperidin-1-yl)-[1,3,5]triazine-2-amine], with below 16 µg/mL; and `N[C@@H]1C[C@H](N)CN(c2nc(Nc3ccc(NC(=O)c4cccc(O)c4O)c(O)c3)nc(N3C[C@H](N)C[C@H](N)C3)n2)C1` [N-[4-(2,3-dihydroxy-benzoylamino)-3-hydroxy-phenyl]-4,6-Bis-((3R,5S)-3,5-diamino-piperidin-1-yl)-[1,3,5]triazine-2-amine], with below 16 µg/mL.
Still for that read-out and setting: then `Cc1cc(Nc2nc(N3C[C@H](N)C[C@H](N)C3)nc(N3C[C@H](N)C[C@H](N)C3)n2)ccc1NC(=O)c1cccc(O)c1O` [N-[4-(2,3-dihydroxy-benzoylamino)-3-methyl-phenyl]-4,6-Bis-((3R,5S)-3,5-diamino-piperidin-1-yl)-[1,3,5]triazine-2-amine], with below 16 µg/mL; and `N[C@@H]1C[C@H](N)CN(c2nc(Nc3ccc(NC(=O)c4cccc(O)c4O)cc3)nc(N3C[C@H](N)C[C@H](N)C3)n2)C1` [N-[4-(2,3-dihydroxy-benzoylamino)-phenyl]-4,6-Bis-((3R,5S)-3,5-diamino-piperidin-1-yl)-[1,3,5]triazine-2-amine], with below 16 µg/mL.
Same read-out and setting: then `Cc1cc(O)c(C)c(O)c1C(=O)Nc1ccc(Nc2nc(N3C[C@H](N)C[C@H](N)C3)nc(N3C[C@H](N)C[C@H](N)C3)n2)cc1` [N-[4-(2,4-dihydroxy-3,6-dimethyl-benzoylamino)-phenyl]-4,6-Bis-((3R,5S)-3,5-diamino-piperidin-1-yl)-[1,3,5]triazine-2-amine], with below 16 µg/mL.
With `Cc1cc(NC(=O)c2ccc(O)cc2O)ccc1Nc1nc(N2C[C@H](N)C[C@H](N)C2)nc(N2C[C@H](N)C[C@H](N)C2)n1` [N-[4-(2,4-dihydroxy-benzoylamino)-2-methyl-phenyl]-4,6-Bis-((3R,5S)-3,5-diamino-piperidin-1-yl)-[1,3,5]triazine-2-amine], the MIC is below 64 µg/mL.
For the molecule `N[C@@H]1C[C@H](N)CN(c2nc(Nc3ccc(NC(=O)c4ccc(O)cc4O)c(O)c3)nc(N3C[C@H](N)C[C@H](N)C3)n2)C1` [N-[4-(2,4-dihydroxy-benzoylamino)-3-hydroxy-phenyl]-4,6-Bis-((3R,5S)-3,5-diamino-piperidin-1-yl)-[1,3,5]triazine-2-amine], the MIC is below 16 µg/mL.

Values taken from patent publication US7223759B2, “Antibacterial 3,5-diaminopiperidine-substituted aromatic and heteroaromatic compounds” (Anadys Pharmaceuticals, Inc., priority 2003, dated 2007).
